Results from the supplement of paper PMC9663587.

Key:
Rucaparib = compound: CNCc1ccc(-c2[nH]c3cc(F)cc4c3c2CCNC4=O)cc1 [Rucaparib]
Alpelisib/BYL719 = compound: Cc1nc(NC(=O)N2CCC[C@H]2C(N)=O)sc1-c1ccnc(C(C)(C)C(F)(F)F)c1 [Alpelisib/BYL719]
Cediranib/AZD2171 = compound: COc1cc2c(Oc3ccc4[nH]c(C)cc4c3F)ncnc2cc1OCCCN1CCCC1 [Cediranib/AZD2171]
THZ1 [1] = compound: T1, CN(C)C/C=C/C(=O)Nc1ccc(C(=O)Nc2cccc(Nc3ncc(Cl)c(-c4c[nH]c5ccccc45)n3)c2)cc1 [THZ1]
[2] = compound: CC(=O)Nc1cccc(-n2c(=O)n(C3CC3)c(=O)c3c(Nc4ccc(I)cc4F)n(C)c(=O)c(C)c32)c1
BVD523 = compound: CC(C)Nc1cc(-c2c[nH]c(C(=O)N[C@H](CO)c3cccc(Cl)c3)c2)c(Cl)cn1 [BVD523]
[3] = compound: CO[C@@H](C)Cn1c(=O)n(C)c2cnc3ccc(-c4cncc(C(C)(C)O)c4)cc3c21
Saracatinib/AZD0530 = compound: CN1CCN(CCOc2cc(OC3CCOCC3)c3c(Nc4c(Cl)ccc5c4OCO5)ncnc3c2)CC1 [Saracatinib/AZD0530]
THZ531 [4] = compound: T2, CN(C)C/C=C/C(=O)Nc1ccc(C(=O)N2CCC[C@@H](Nc3ncc(Cl)c(-c4c[nH]c5ccccc45)n3)C2)cc1 [THZ531]
[5] = compound: CCCCOc1c(C(=O)c2c(F)cc(C)cc2F)c[nH]c2nncc1-2
AZD1775 = compound: C=CCn1c(=O)c2cnc(Nc3ccc(N4CCN(C)CC4)cc3)nc2n1-c1cccc(C(C)(C)O)n1 [AZD1775]
[6] = compound: COc1ccc2c(c1)[C@]1(C[C@H]1c1ccc3c(/C=C/c4ccc(CN5C[C@@H](C)O[C@@H](C)C5)cc4)n[nH]c3c1)C(=O)N2
[7] = compound: CCc1cnn2c(NCc3ccc[n+]([O-])c3)cc(N3CCCC[C@H]3CCO)nc12; assay: increase in dead-cell fraction, 72 h; higher = more death;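 also: breast cancer cell lines in 384-well plates, stained with Hoechst plus LIVE/DEAD far red dye and imaged, cells above an LDR intensity threshold counted dead, Hoechst-negative corpses included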
[8] = compound: CC(=O)c1c(C)c2cnc(Nc3ccc(N4CCNCC4)cn3)nc2n(C2CCCC2)c1=O; assay: as above
BSJ-03-123 = compound: CC(=O)c1c(C)c2cnc(Nc3ccc(N4CCN(CCOCCOCCOCCNC(=O)COc5cccc6c5C(=O)N(C5CCC(=O)NC5=O)C6=O)CC4)cn3)nc2n(C2CCCC2)c1=O [BSJ-03-123]; assay: as above
THZ1 [9] = compound: T1, THZ1; assay: as above
LEE011/Ribociclib = compound: CN(C)C(=O)c1cc2cnc(Nc3ccc(N4CCNCC4)cn3)nc2n1C1CCCC1 [LEE011/Ribociclib]; assay: as above
THZ531 [10] = compound: T2, THZ531; assay: as above
YKL-5-124 = compound: C=CC(=O)Nc1ccc(C(=O)Nc2[nH]nc3c2CN(C(=O)N[C@H](CN(C)C)c2ccccc2)C3(C)C)cc1 [YKL-5-124]; assay: as above
Neratinib/HKI272 = compound: CCOc1cc2ncc(C#N)c(Nc3ccc(OCc4ccccn4)c(Cl)c3)c2cc1NC(=O)/C=C/CN(C)C [Neratinib/HKI272]; assay: as above
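For GR50, 72 h in this document: breast cancer and non-malignant breast epithelial cell lines, Deep Dye Drop or Dye Drop imaging, nine half-log doses, GR normalized to time-zero plates and DMSO-only controls.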

## HCC1143
Rucaparib
  GR50, 72 h: > 10 µM
Alpelisib/BYL719
  GR50, 72 h: 9.88 µM
Cediranib/AZD2171
  GR50, 72 h: 3.73 µM
THZ1 [1]
  GR50, 72 h: 0.0265 µM
[2]
  GR50, 72 h: 0.00883 µM
BVD523
  GR50, 72 h: 1.74 µM
[3]
  GR50, 72 h: 0.286 µM
Saracatinib/AZD0530
  GR50, 72 h: 3.03 µM
THZ531 [4]
  GR50, 72 h: 0.131 µM
[5]
  GR50, 72 h: 0.00177 µM
AZD1775
  GR50, 72 h: 0.703 µM
[6]
  GR50, 72 h: 0.00523 µM
[7]; 0.0001 µM
  increase in dead-cell fraction: -0.0025
[7]; 0.0003162 µM
  increase in dead-cell fraction: -0.0033
[7]; 0.001 µM
  increase in dead-cell fraction: 0.0002
[7]; 0.003162 µM
  increase in dead-cell fraction: -0.0039
[7]; 0.01 µM
  increase in dead-cell fraction: 0.006
[7]; 0.03162 µM
  increase in dead-cell fraction: 0.248
[7]; 0.1 µM
  increase in dead-cell fraction: 0.258
[7]; 0.3162 µM
  increase in dead-cell fraction: 0.254
[7]; 1 µM
  increase in dead-cell fraction: 0.239
[8]; 0.0003162 µM
  increase in dead-cell fraction: 0.0048
[8]; 0.001 µM
  increase in dead-cell fraction: 0.0021
[8]; 0.003162 µM
  increase in dead-cell fraction: -0.0047
[8]; 0.01 µM
  increase in dead-cell fraction: -0.0052
[8]; 0.03162 µM
  increase in dead-cell fraction: -0.0059
[8]; 0.1 µM
  increase in dead-cell fraction: -0.0023
[8]; 0.3162 µM
  increase in dead-cell fraction: -0.0052
[8]; 1 µM
  increase in dead-cell fraction: -0.0085
[8]; 3.162 µM
  increase in dead-cell fraction: 0.0036
BSJ-03-123; 0.001 µM
  increase in dead-cell fraction: 0.0033
BSJ-03-123; 0.003162 µM
  increase in dead-cell fraction: 0.0019
BSJ-03-123; 0.01 µM
  increase in dead-cell fraction: -0.0022
BSJ-03-123; 0.03162 µM
  increase in dead-cell fraction: -0.0018
BSJ-03-123; 0.1 µM
  increase in dead-cell fraction: 0.0104
BSJ-03-123; 0.3162 µM
  increase in dead-cell fraction: 0.011
BSJ-03-123; 1 µM
  increase in dead-cell fraction: 0.0065
BSJ-03-123; 3.162 µM
  increase in dead-cell fraction: 0.0186
BSJ-03-123; 10 µM
  increase in dead-cell fraction: 0.102
THZ1 [9]; 0.0001 µM
  increase in dead-cell fraction: -0.0073
THZ1 [9]; 0.0003162 µM
  increase in dead-cell fraction: -0.0031
THZ1 [9]; 0.001 µM
  increase in dead-cell fraction: -0.0053
THZ1 [9]; 0.003162 µM
  increase in dead-cell fraction: -0.0066
THZ1 [9]; 0.01 µM
  increase in dead-cell fraction: 0.0051
THZ1 [9]; 0.03162 µM
  increase in dead-cell fraction: 0.0382
THZ1 [9]; 0.1 µM
  increase in dead-cell fraction: 0.162
THZ1 [9]; 0.3162 µM
  increase in dead-cell fraction: 0.192
THZ1 [9]; 1 µM
  increase in dead-cell fraction: 0.165
LEE011/Ribociclib; 0.001 µM
  increase in dead-cell fraction: -0.0077
LEE011/Ribociclib; 0.003162 µM
  increase in dead-cell fraction: 0.0012
LEE011/Ribociclib; 0.01 µM
  increase in dead-cell fraction: 0
LEE011/Ribociclib; 0.03162 µM
  increase in dead-cell fraction: 0.001
LEE011/Ribociclib; 0.1 µM
  increase in dead-cell fraction: 0.0077
LEE011/Ribociclib; 0.3162 µM
  increase in dead-cell fraction: 0.0065
LEE011/Ribociclib; 1 µM
  increase in dead-cell fraction: 0.0007
LEE011/Ribociclib; 3.162 µM
  increase in dead-cell fraction: 0.009
LEE011/Ribociclib; 10 µM
  increase in dead-cell fraction: 0.0365
THZ531 [10]; 0.0001 µM
  increase in dead-cell fraction: 0.0046
THZ531 [10]; 0.0003162 µM
  increase in dead-cell fraction: 0.0047
THZ531 [10]; 0.001 µM
  increase in dead-cell fraction: 0.0003
THZ531 [10]; 0.003162 µM
  increase in dead-cell fraction: 0.0002
THZ531 [10]; 0.01 µM
  increase in dead-cell fraction: -0.0009
THZ531 [10]; 0.03162 µM
  increase in dead-cell fraction: 0.0121
THZ531 [10]; 0.1 µM
  increase in dead-cell fraction: 0.0256
THZ531 [10]; 0.3162 µM
  increase in dead-cell fraction: 0.117
THZ531 [10]; 1 µM
  increase in dead-cell fraction: 0.134
YKL-5-124; 0.001 µM
  increase in dead-cell fraction: 0.0369
YKL-5-124; 0.003162 µM
  increase in dead-cell fraction: 0.0319
YKL-5-124; 0.01 µM
  increase in dead-cell fraction: 0.0518
YKL-5-124; 0.03162 µM
  increase in dead-cell fraction: 0.0428
YKL-5-124; 0.1 µM
  increase in dead-cell fraction: 0.0477
YKL-5-124; 0.3162 µM
  increase in dead-cell fraction: 0.0836
YKL-5-124; 1 µM
  increase in dead-cell fraction: 0.0896
YKL-5-124; 3.162 µM
  increase in dead-cell fraction: 0.0668
YKL-5-124; 10 µM
  increase in dead-cell fraction: 0.121
Neratinib/HKI272; 0.0003162 µM
  increase in dead-cell fraction: 0.003
Neratinib/HKI272; 0.001 µM
  increase in dead-cell fraction: 0.0005
Neratinib/HKI272; 0.003162 µM
  increase in dead-cell fraction: 0.006
Neratinib/HKI272; 0.01 µM
  increase in dead-cell fraction: 0.0143
Neratinib/HKI272; 0.03162 µM
  increase in dead-cell fraction: 0.0116
Neratinib/HKI272; 0.1 µM
  increase in dead-cell fraction: 0.0306
Neratinib/HKI272; 0.3162 µM
  increase in dead-cell fraction: 0.0437
Neratinib/HKI272; 1 µM
  increase in dead-cell fraction: 0.0748
Neratinib/HKI272; 3.162 µM
  increase in dead-cell fraction: 0.261
